{
  "source": "paper PMC6492180",
  "about": "“Cytome micronucleus assays with a metabolically competent human derived liver cell line (Huh6): A promising approach for routine testing of chemicals?” (Environmental and Molecular Mutagenesis, 2018)",
  "key": {"[1]": {"settings": "ref IARC (2018); cited from earlier work"}, "HepG2": {"system": "HepG2", "settings": "HepG2; ref Majer et al., 2004; cited from earlier work"}, "Human lymphocytes": {"system": "Human lymphocytes", "settings": "Human lymphocytes, + S9; ref Katic et al., 2010; cited from earlier work"}, "Hep3B": {"system": "Hep3B", "settings": "Hep3B; ref Majer et al., 2004; cited from earlier work"}, "Huh6 cells": {"system": "Huh6 cells", "description": "All experiments were performed in duplicate.\n3.8–4.0 × 10^5 cells per well were seeded into 6‐well plates with 3 mL of RPMI (4% FBS) for 12 hr, then dilutions of stock solutions of the diagnostic mutagens were added for different time periods (4, 24, and 48 hr). In each experimental series solvent controls were included. Subsequently, the cells were washed twice with 3.0 mL medium. […] Finally, the cells were washed and trypsinised. Afterwards the cells were washed twice with 8.0 mL RPMI and collected on slides by cytocentrifugation (600 rpm, 5 min). The slides were air dried, fixed, and stained with DiffQuick according to the instructions of the manufacturer. For each experimental point, two cultures were tested per dose. From each culture ≥1,000 BN cells were evaluated under 400‐fold magnification (Nikon Photophot‐FXA, Tokyo, Japan). At least 2,000 binucleated cells were analyzed per dose for the determination of the different nuclear anomalies (MN, NBuds, and NBs).\nThe experiments were performed as described in the previous chapter. The cells were exposed only to one dose of the different mutagens and were cultivated after the seeding in 6‐well plates which contained 4% or 10% FBS in RPMI, respectively.\nData were evaluated by generalized linear model with Poisson counts. Chi‐square tests for overdispersion were applied. […] P values ≤0.05 were considered statistically significant.\n^150-60 000 cells were seeded in 6 well plates with 3 ml RPMI (4% FBS), subsequently different solutions of the test compound (dissolved in medium) were added. After treatment for different time periods, the cells was washed and processed as described in the Material and Method section. […] From each culture 1000 binoculated cells were evaluated. BN-MN – number of micronucleated cells; MN - total number of micronuclei; CBPI – cytokinesis-block proliferation index\n^1The experiments were conducted essentially as described in the footnote of Table S1A-I. *p≤0.05"}, "HepaRG": {"system": "HepaRG", "settings": "HepaRG; ref Le Hegarat et al., 2010; cited from earlier work"}, "[2]": {"settings": "10% FBS, 24 hr treatment, 50 µM"}, "[3]": {"settings": "10% FBS, 24 hr treatment, 100 µM"}},
  "note": "Where two headings read alike, the source gives them in different places. Marks after values point to notes of the source that are not given here.",
  "data": [
    {"smiles": "Cn1c(N)nc2ncc(-c3ccccc3)cc21", "note": "[PhiP, 2‐Amino‐1‐methyl‐6‐phenylimidazo[4,5‐b]pyridine]", "values": [
      {"measurement": "IARC classification", "setting": "[1]", "value": "Formation of guanine adducts; activation: CYP1A2 and SULT; detoxification: GSTs; IARC: Group 2B"},
      {"measurement": "Lowest effective concentration (LOEC) in micronucleus experiments", "setting": "HepG2", "value": "25.0 (Majer et al., 2004) μM"},
      {"measurement": "Lowest effective concentration (LOEC) in micronucleus experiments", "setting": "Human lymphocytes", "value": "2.5 + S9 (Katic et al., 2010) μM"},
      {"measurement": "Lowest effective concentration (LOEC) in micronucleus experiments", "setting": "Hep3B", "value": "Negative"},
      {"measurement": "NOEC (highest no observable effect concentration tested)", "setting": "Hep3B", "value": 300.0, "unit": "µM"},
      {"measurement": "MN effects after 24 hr (or longer) compared with 4 hr treatment (in words)", "setting": "Huh6 cells; 4% FBS", "value": "more pronounced effects"},
      {"measurement": "BN-MN (number of micronucleated cells)", "setting": "Huh6 cells; 4% FBS, 4hrs, 25 µM", "value": "23.5 ± 0.7 ‰"},
      {"measurement": "Bridges", "setting": "Huh6 cells; 4% FBS, 4hrs, 25 µM", "value": "0.5 ± 0.7 ‰"},
      {"measurement": "Buds", "setting": "Huh6 cells; 4% FBS, 4hrs, 25 µM", "value": "18.0 ± 5.7 ‰"},
      {"measurement": "CBPI", "setting": "Huh6 cells; 4% FBS, 4hrs, 25 µM", "value": "1.7 ± 0.1"},
      {"measurement": "MN (total number of micronuclei)", "setting": "Huh6 cells; 4% FBS, 4hrs, 25 µM", "value": "23.5 ± 0.7 ‰"},
      {"measurement": "BN-MN (number of micronucleated cells)", "setting": "Huh6 cells; 4% FBS, 4hrs, 50 µM", "value": "22.5 ± 2.1 ‰"},
      {"measurement": "Bridges", "setting": "Huh6 cells; 4% FBS, 4hrs, 50 µM", "value": "2.0 ± 1.4 ‰"},
      {"measurement": "Buds", "setting": "Huh6 cells; 4% FBS, 4hrs, 50 µM", "value": "19.0 ± 7.1 ‰"},
      {"measurement": "CBPI", "setting": "Huh6 cells; 4% FBS, 4hrs, 50 µM", "value": "1.6 ± 0.2"},
      {"measurement": "MN (total number of micronuclei)", "setting": "Huh6 cells; 4% FBS, 4hrs, 50 µM", "value": "22.5 ± 2.1 ‰"},
      {"measurement": "BN-MN (number of micronucleated cells)", "setting": "Huh6 cells; 4% FBS, 4hrs, 100 µM", "value": "26 ± 1.4 ‰"},
      {"measurement": "Bridges", "setting": "Huh6 cells; 4% FBS, 4hrs, 100 µM", "value": "1.5 ± 0.7 ‰"},
      {"measurement": "Buds", "setting": "Huh6 cells; 4% FBS, 4hrs, 100 µM", "value": "23.5 ± 6.4 ‰"},
      {"measurement": "CBPI", "setting": "Huh6 cells; 4% FBS, 4hrs, 100 µM", "value": "1.7 ± 0.0"},
      {"measurement": "MN (total number of micronuclei)", "setting": "Huh6 cells; 4% FBS, 4hrs, 100 µM", "value": "28 ± 1.4 ‰"},
      {"measurement": "BN-MN (number of micronucleated cells)", "setting": "Huh6 cells; 4% FBS, 24hrs, 25 µM", "value": "17.5 ± 2.1 ‰"},
      {"measurement": "Bridges", "setting": "Huh6 cells; 4% FBS, 24hrs, 25 µM", "value": "0.0 ± 0.0 ‰"},
      {"measurement": "Buds", "setting": "Huh6 cells; 4% FBS, 24hrs, 25 µM", "value": "10.5 ± 0.7 ‰"},
      {"measurement": "CBPI", "setting": "Huh6 cells; 4% FBS, 24hrs, 25 µM", "value": "1.9 ± 0.1"},
      {"measurement": "MN (total number of micronuclei)", "setting": "Huh6 cells; 4% FBS, 24hrs, 25 µM", "value": "17.5 ± 2.1 ‰"},
      {"measurement": "BN-MN (number of micronucleated cells)", "setting": "Huh6 cells; 4% FBS, 24hrs, 50 µM", "value": "26.5 ± 0.7* ‰"},
      {"measurement": "Bridges", "setting": "Huh6 cells; 4% FBS, 24hrs, 50 µM", "value": "1.5 ± 0.7 ‰"},
      {"measurement": "Buds", "setting": "Huh6 cells; 4% FBS, 24hrs, 50 µM", "value": "24.5 ± 0.7* ‰"},
      {"measurement": "CBPI", "setting": "Huh6 cells; 4% FBS, 24hrs, 50 µM", "value": "1.8 ± 0.0"},
      {"measurement": "MN (total number of micronuclei)", "setting": "Huh6 cells; 4% FBS, 24hrs, 50 µM", "value": "30.0 ± 1.4* ‰"},
      {"measurement": "BN-MN (number of micronucleated cells)", "setting": "Huh6 cells; 4% FBS, 24hrs, 100 µM", "value": "49.5 ± 2.1* ‰"},
      {"measurement": "Bridges", "setting": "Huh6 cells; 4% FBS, 24hrs, 100 µM", "value": "3.0 ± 0.0 ‰"},
      {"measurement": "Buds", "setting": "Huh6 cells; 4% FBS, 24hrs, 100 µM", "value": "34.0 ± 1.4* ‰"},
      {"measurement": "CBPI", "setting": "Huh6 cells; 4% FBS, 24hrs, 100 µM", "value": "1.9 ± 0.0"},
      {"measurement": "MN (total number of micronuclei)", "setting": "Huh6 cells; 4% FBS, 24hrs, 100 µM", "value": "49.5 ± 2.1* ‰"},
      {"measurement": "BN-MN (number of micronucleated cells)", "setting": "Huh6 cells; 4% FBS, 48hrs, 25 µM", "value": "20.0 ± 1.4 ‰"},
      {"measurement": "Bridges", "setting": "Huh6 cells; 4% FBS, 48hrs, 25 µM", "value": "0.0 ± 0.0 ‰"},
      {"measurement": "Buds", "setting": "Huh6 cells; 4% FBS, 48hrs, 25 µM", "value": "20.5 ± 3.5 ‰"},
      {"measurement": "CBPI", "setting": "Huh6 cells; 4% FBS, 48hrs, 25 µM", "value": "1.9 ± 0.1"},
      {"measurement": "MN (total number of micronuclei)", "setting": "Huh6 cells; 4% FBS, 48hrs, 25 µM", "value": "20.5 ± 0.7 ‰"},
      {"measurement": "BN-MN (number of micronucleated cells)", "setting": "Huh6 cells; 4% FBS, 48hrs, 50 µM", "value": "20.5 ± 3.5 ‰"},
      {"measurement": "Bridges", "setting": "Huh6 cells; 4% FBS, 48hrs, 50 µM", "value": "0.5 ± 0.7 ‰"},
      {"measurement": "Buds", "setting": "Huh6 cells; 4% FBS, 48hrs, 50 µM", "value": "22.0 ± 4.2 ‰"},
      {"measurement": "CBPI", "setting": "Huh6 cells; 4% FBS, 48hrs, 50 µM", "value": "1.9 ± 0.0"},
      {"measurement": "MN (total number of micronuclei)", "setting": "Huh6 cells; 4% FBS, 48hrs, 50 µM", "value": "21.5 ± 3.5 ‰"},
      {"measurement": "BN-MN (number of micronucleated cells)", "setting": "Huh6 cells; 4% FBS, 48hrs, 100 µM", "value": "22.0 ± 1.4 ‰"},
      {"measurement": "Bridges", "setting": "Huh6 cells; 4% FBS, 48hrs, 100 µM", "value": "0.5 ± 0.7 ‰"},
      {"measurement": "Buds", "setting": "Huh6 cells; 4% FBS, 48hrs, 100 µM", "value": "29.5 ± 0.7* ‰"},
      {"measurement": "CBPI", "setting": "Huh6 cells; 4% FBS, 48hrs, 100 µM", "value": "1.8 ± 0.2"},
      {"measurement": "MN (total number of micronuclei)", "setting": "Huh6 cells; 4% FBS, 48hrs, 100 µM", "value": "24.0 ± 1.4 ‰"},
      {"measurement": "BN-MN (number of micronucleated cells)", "setting": "Huh6 cells; [2]", "value": "50.0 ± 2.8*"},
      {"measurement": "Bridges", "setting": "Huh6 cells; [2]", "value": "1.0 ± 1.4"},
      {"measurement": "Buds", "setting": "Huh6 cells; [2]", "value": "50.0 ± 1.4"},
      {"measurement": "CBPI", "setting": "Huh6 cells; [2]", "value": "2.0 ± 0.1"},
      {"measurement": "MN (total number of micronuclei)", "setting": "Huh6 cells; [2]", "value": "56.5 ± 2.1*"},
      {"measurement": "BN-MN (number of micronucleated cells)", "setting": "Huh6 cells; [3]", "value": "55.0 ± 11.3*"},
      {"measurement": "Bridges", "setting": "Huh6 cells; [3]", "value": "1.5 ± 0.7"},
      {"measurement": "Buds", "setting": "Huh6 cells; [3]", "value": "60.0 ± 7.1*"},
      {"measurement": "CBPI", "setting": "Huh6 cells; [3]", "value": "1.8 ± 0.0"},
      {"measurement": "MN (total number of micronuclei)", "setting": "Huh6 cells; [3]", "value": "61 ± 12.7*"},
      {"measurement": "MN frequencies with 10% serum compared with 4% serum (in words)", "setting": "Huh6 cells; 24 hr treatment", "value": "stronger effects"},
      {"measurement": "Lowest effective concentration (LOEC) in micronucleus experiments", "setting": "Huh6 cells; Huh6", "value": 50.0, "unit": "µM"},
      {"measurement": "Lowest effective concentration (LOEC) in micronucleus experiments", "setting": "HepaRG", "value": "Negative"},
      {"measurement": "NOEC (highest no observable effect concentration tested)", "setting": "HepaRG", "value": 320.0, "unit": "µM"}
    ]}
  ]
}
